ChEMBL document CHEMBL4680351, “Antimicrobial and cytotoxic effects of ammonium derivatives of diterpenoids steviol and isosteviol” (Bioorg Med Chem, 2021)
Non-standard residues stand in square brackets, D forms with d. Residues, ends and D or L forms follow the SMILES beside them. Orn = NCCC[C@H](N)C(=O)O

Legend:
Staphylococcus aureus [1] = experiment: Bactericidal activity against Staphylococcus aureus 209P measured every 24 hrs for 5 days by serial dilution method; assay type: functional; details: 120 h, time 5 day
HeLa = experiment: Cytotoxicity against human HeLa cells assessed as reduction in cell viability by DAPI staining based assay
PC-3 = experiment: Cytotoxicity against human PC-3 cells assessed as reduction in cell viability by DAPI staining based assay
Staphylococcus aureus [2] = experiment: Bactericidal activity against Staphylococcus aureus MRSA-2 measured every 24 hrs for 5 days by serial dilution method; assay type: functional; details: MRSA-2, 120 h, time 5 day
Staphylococcus aureus [3] = experiment: Antibacterial activity against Staphylococcus aureus 209P assessed as bacterial growth inhibition; assay type: functional
Staphylococcus aureus [4] = experiment: Antibacterial activity against Staphylococcus aureus MRSA-2 assessed as bacterial growth inhibition in Mueller-Hinton broth 2 measured every 24 hrs for 5 days by serial dilution method; assay type: functional; details: MRSA-2, 120 h, time 5 day
A549 = experiment: Cytotoxicity against human A549 cells assessed as reduction in cell viability by DAPI staining based assay
T98G = experiment: Cytotoxicity against human T98G cells assessed as reduction in cell viability by DAPI staining based assay
WI-38 = experiment: Cytotoxicity against human WI-38 cells assessed as reduction in cell viability by DAPI staining based assay
HepG2 = experiment: Cytotoxicity against human HepG2 cells assessed as reduction in cell viability by DAPI staining based assay
MCF7 = experiment: Cytotoxicity against human MCF7 cells assessed as reduction in cell viability by DAPI staining based assay; assay type: functional
Staphylococcus aureus [5] = experiment: Antibacterial activity against Staphylococcus aureus MRSA-1 assessed as bacterial growth inhibition in Mueller-Hinton broth 2 measured every 24 hrs for 5 days by serial dilution method; assay type: functional; details: MRSA-1, 120 h, time 5 day
[6] = Hemolytic activity against human erythrocytes after 1 hr by digital photoelectric colorimetric method; assay type: ADME, cell-based, Erythrocyte
Staphylococcus aureus [7] = experiment: Bactericidal activity against Staphylococcus aureus MRSA-1 measured every 24 hrs for 5 days by serial dilution method; assay type: functional; details: MRSA-1, 120 h, time 5 day

| MIC (Staphylococcus aureus [3]) [µM] | MIC (Staphylococcus aureus [4]) [µM] | MIC (Staphylococcus aureus [5]) [µM] | SMILES | MBC (Staphylococcus aureus [1]) [µM] | IC50 (HeLa) [µM] | IC50 (PC-3) [µM] | MBC (Staphylococcus aureus [2]) [µM] | IC50 (A549) [µM] | IC50 (T98G) [µM] | IC50 (WI-38) [µM] | IC50 (HepG2) [µM] | IC50 (MCF7) [µM] | HC50 at 1 h [6] [µM] | MBC (Staphylococcus aureus [7]) [µM] |
| --- | --- | --- | --- | --- | --- | --- | --- | --- | --- | --- | --- | --- | --- | --- |
| 55.8 | 112 | 223 | C[C@@]12CC[C@@H]3[C@@](CC[C@H]4[C@@]3(C)CCC[C@@]4(C)C(=O)OCC[N+](C)(C)Cc3ccccc3)(CC1=O)C2 | 55.8 | > 100 | > 100 | 112 | > 100 | > 100 | > 100 | > 100 | > 100 | > 100 | 223 |
| – | – | – | CC(C)C[C@@H]1NC(=O)[C@H](CCCN)NC(=O)[C@H](C(C)C)NC(=O)[C@@H]2CCCN2C(=O)[C@@H](Cc2ccccc2)NC(=O)[C@H](CC(C)C)NC(=O)[C@H](CCCN)NC(=O)[C@H](C(C)C)NC(=O)[C@@H]2CCCN2C(=O)[C@@H](Cc2ccccc2)NC1=O [GRAMICIDIN S] (cyclo(L[dF]PV[Orn]L[dF]PV[Orn])) | – | – | – | – | – | – | – | – | – | 9.4 | – |
